Results reported in US12668600B2 (Kumquat Biosciences Inc., priority 2023, dated 2026).

What was measured:
Type in all cases: biochemical
KRAS G12D = molecular target: T1, KRAS G12D (Homo sapiens, UniProt P01116, G12D); test: HTRF KRAS-SOS1 interaction assay, KRAS G12D; settings: binned ≤2 μM / >2 μM, read-out: Inhibition of KRAS G12D (IC50)
T1 construct: made in house; host or cells: E. coli, e.g. BL21 (DE3)
Procedure, shortened: (§1)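 GST-tagged KRAS (WT or mutant) with anti-GST-Eu donor and His-hSOS1 with anti-6His-XL665 acceptor were combined in 5 mM HEPES pH 7.4, 150 mM NaCl, 1 mM DTT, 0.05% BSA, 0.0025% Igepal. After ~10 min, HTRF was read (ex 337, em 620/665 nm); IC50 from 665/620 ratio.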

KRAS WT = molecular target: T2, KRAS WT (Homo sapiens, UniProt P01116); test: HTRF KRAS-SOS1 interaction assay, wildtype KRAS; settings: binned ≤2 μM / >2 μM, read-out: Inhibition of KRAS WT (IC50)
T2 construct: made in house; host or cells: E. coli, e.g. BL21 (DE3)
T2 sequence (P01116 1-188 isoform P01116-2): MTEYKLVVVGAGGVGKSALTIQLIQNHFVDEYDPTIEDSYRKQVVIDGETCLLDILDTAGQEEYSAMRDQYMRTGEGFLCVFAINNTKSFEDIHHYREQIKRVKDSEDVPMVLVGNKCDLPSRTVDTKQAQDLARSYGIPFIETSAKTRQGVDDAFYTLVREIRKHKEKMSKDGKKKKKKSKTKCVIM
Procedure, shortened: as §1

KRAS G12V = molecular target: T3, KRAS G12V (Homo sapiens, UniProt P01116, G12V); test: HTRF KRAS-SOS1 interaction assay, KRAS G12V; settings: binned ≤2 μM / >2 μM, read-out: Inhibition of KRAS G12V (IC50)
T3 construct: made in house; host or cells: E. coli, e.g. BL21 (DE3)
T3 sequence (P01116 1-188 isoform P01116-2 G12V): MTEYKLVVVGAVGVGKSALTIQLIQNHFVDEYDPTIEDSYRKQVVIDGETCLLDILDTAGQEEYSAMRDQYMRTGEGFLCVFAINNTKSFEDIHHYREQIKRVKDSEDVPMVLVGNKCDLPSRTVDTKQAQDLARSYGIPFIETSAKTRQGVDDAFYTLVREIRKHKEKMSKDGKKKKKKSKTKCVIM
Procedure, shortened: as §1

KRAS G12S = molecular target: T4, KRAS G12S (Homo sapiens, UniProt P01116, G12S); test: HTRF KRAS-SOS1 interaction assay, KRAS G12S; settings: binned ≤2 μM / >2 μM, read-out: Inhibition of KRAS G12S (IC50)
T4 construct: made in house; host or cells: E. coli, e.g. BL21 (DE3)
T4 sequence (P01116 1-188 isoform P01116-2 G12S): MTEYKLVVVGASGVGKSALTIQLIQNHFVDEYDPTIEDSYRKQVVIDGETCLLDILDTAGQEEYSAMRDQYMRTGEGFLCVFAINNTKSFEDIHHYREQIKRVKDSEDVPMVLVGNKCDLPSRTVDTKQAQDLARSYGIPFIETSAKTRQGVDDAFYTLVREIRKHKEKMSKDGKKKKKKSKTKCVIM
Procedure, shortened: as §1

T1 sequence (P01116 1-188 isoform P01116-2 G12D): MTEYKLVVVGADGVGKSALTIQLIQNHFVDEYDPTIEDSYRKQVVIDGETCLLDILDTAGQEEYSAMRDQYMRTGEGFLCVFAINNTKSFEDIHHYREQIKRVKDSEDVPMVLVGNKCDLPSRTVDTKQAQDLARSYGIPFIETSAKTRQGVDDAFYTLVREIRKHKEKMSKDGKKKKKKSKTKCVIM

Row | SMILES | IC50 (KRAS G12D) [nM] | IC50 (KRAS WT) [nM] | IC50 (KRAS G12V) [nM] | IC50 (KRAS G12S) [nM]
1 | Cc1c(F)c(N)cc(-c2nc3c4c(nc(OC[C@@]56CCCN5C[C@H](F)C6)nc4c2F)N([C@H](C)c2cccnc2N)C[C@H](C)O3)c1C(F)(F)F (single isomer, unassigned) [Compound 687] | ≤ 2000 | ≤ 2000 | ≤ 2000 | ≤ 2000
2 | C[C@H](c1cncnc1N)N1CCOc2c(C(F)(F)F)c(-c3ccc(F)c4sc(N)c(C#N)c34)c(F)c3nc(OCC4(CN5CCC(F)CC5)CC4)nc1c23 [Compound 908, 2-amino-4-(4-((R)-1-(4-aminopyrimidin-5-yl)ethyl)-10-fluoro-2-((1-((4-fluoropiperidin-1-yl)methyl)cyclopropyl)methoxy)-8-(trifluoromethyl)-5,6-dihydro-4H-[1,4]oxazepino[5,6,7-de]quinazolin-9-yl)-7-fluorobenzo[b]thiophene-3-carbonitrile] | ≤ 2000 | ≤ 2000 | ≤ 2000 | ≤ 2000
3 | C[C@H](c1cc(F)cnc1N)N1CCOc2c(C(F)(F)F)c(-c3ccc(F)c4sc(N)c(C#N)c34)c(F)c3nc(OC[C@@]45CCCN4CC(=C(F)F)C5)nc1c23 [Compound 675, 2-amino-4-(4-((R)-1-(2-amino-5-fluoropyridin-3-yl)ethyl)-2-(((S)-2-(difluoromethylene)tetrahydro-1H-pyrrolizin-7a(5H)-yl)methoxy)-10-fluoro-8-(trifluoromethyl)-5,6-dihydro-4H-[1,4]oxazepino[5,6,7-de]quinazolin-9-yl)-7-fluorobenzo[b]thiophene-3-carbonitrile] | ≤ 2000 | ≤ 2000 | ≤ 2000 | ≤ 2000
4 | C=CC(F)(F)[C@@H](c1cccnc1N)N1CCOc2c(Cl)c(-c3ccc(F)c4sc(N)c(C#N)c34)c(F)c3nc(OC[C@@]45CCCN4C[C@H](F)C5)nc1c23 [Compound 834, 2-amino-4-(4-((R)-1-(2-aminopyridin-3-yl)-2,2-difluorobut-3-en-1-yl)-8-chloro-10-fluoro-2-(((2R,7aS)-2-fluorotetrahydro-1H-pyrrolizin-7a(5H)-yl)methoxy)-5,6-dihydro-4H-[1,4]oxazepino[5,6,7-de]quinazolin-9-yl)-7-fluorobenzo[b]thiophene-3-carbonitrile] | > 2000 | ≤ 2000 | ≤ 2000 | ≤ 2000
5 | N#Cc1c(N)sc2c(F)ccc(-c3c(C(F)(F)F)c4c5c(nc(OC[C@@]67CCCN6C[C@H](F)C7)nc5c3F)N([C@H](CC3CCC3)c3cccnc3N)CCO4)c12 (single isomer, unassigned) [Compound 893] | ≤ 2000 | ≤ 2000 | ≤ 2000 | ≤ 2000
6 | Cc1cnc(N)c([C@@H](C)N2CCOc3c(C(F)(F)F)c(-c4ccc(F)c5sc(N)c(C#N)c45)c(F)c4nc(OC[C@@]56CCCN5C[C@H](F)C6)nc2c34)c1 (single isomer, unassigned) [Compound 796] | ≤ 2000 | ≤ 2000 | ≤ 2000 | ≤ 2000
7 | N#Cc1c(N)sc2c(F)ccc(-c3c(C(F)(F)F)c4c5c(nc(OC[C@@]67CCCN6CC(=C(F)F)C7)nc5c3F)N([C@H](CCC(F)(F)F)c3cccnc3N)CCO4)c12 [Compound 666, 2-amino-4-(4-((R)-1-(2-aminopyridin-3-yl)-4,4,4-trifluorobutyl)-2-(((S)-2-(difluoromethylene)tetrahydro-1H-pyrrolizin-7a(5H)-yl)methoxy)-10-fluoro-8-(trifluoromethyl)-5,6-dihydro-4H-[1,4]oxazepino[5,6,7-de]quinazolin-9-yl)-7-fluorobenzo[b]thiophene-3-carbonitrile] | ≤ 2000 | ≤ 2000 | ≤ 2000 | ≤ 2000
8 | C[C@@H]1CN(CC2(COc3nc4c5c(c(C(F)(F)F)c(-c6ccc(F)c7sc(N)c(C#N)c67)c(F)c5n3)OCCN4[C@H](C)c3cccnc3N)CC2)CCO1 (single isomer, unassigned) [Compound 826] | > 2000 | > 2000 | > 2000 | > 2000

The next lines start with the values.

Row | IC50 (KRAS G12D) [nM] | IC50 (KRAS WT) [nM] | IC50 (KRAS G12V) [nM] | IC50 (KRAS G12S) [nM] | SMILES
9 | ≤ 2000 | ≤ 2000 | ≤ 2000 | ≤ 2000 | C[C@H](c1cccnc1F)N1CCOc2c(C(F)(F)F)c(-c3ccc(F)c4sc(N)c(C#N)c34)c(F)c3nc(OC[C@@]45CCCN4C[C@H](F)C5)nc1c23 [Compound 817, 2-amino-7-fluoro-4-(10-fluoro-4-((R)-1-(2-fluoropyridin-3-yl)ethyl)-2-(((2R,7aS)-2-fluorotetrahydro-1H-pyrrolizin-7a(5H)-yl)methoxy)-8-(trifluoromethyl)-5,6-dihydro-4H-[1,4]oxazepino[5,6,7-de]quinazolin-9-yl)benzo[b]thiophene-3-carbonitrile]
10 | ≤ 2000 | ≤ 2000 | ≤ 2000 | ≤ 2000 | N#Cc1c(N)sc2c(F)ccc(-c3c(C(F)(F)F)c4c5c(nc(OCC6(CN7CCC(=CF)CC7)CC6)nc5c3F)N([C@H](CCC3CCOCC3)c3cccnc3N)CCO4)c12 [Compound 905, 2-amino-4-(4-((R)-1-(2-aminopyridin-3-yl)-3-(tetrahydro-2H-pyran-4-yl)propyl)-10-fluoro-2-((1-((4-(fluoromethylene)piperidin-1-yl)methyl)cyclopropyl)methoxy)-8-(trifluoromethyl)-5,6-dihydro-4H-[1,4]oxazepino[5,6,7-de]quinazolin-9-yl)-7-fluorobenzo[b]thiophene-3-carbonitrile]
11 | > 2000 | > 2000 | > 2000 | > 2000 | C[C@H](c1cccnc1N)N1CCOc2c(C(F)(F)F)c(-c3ccc(F)c4sc(N)c(C#N)c34)c(F)c3nc(OCC4(CN5[C@H](C)COC[C@@H]5C)CC4)nc1c23 (single isomer, unassigned) [Compound 719]
12 | ≤ 2000 | ≤ 2000 | ≤ 2000 | ≤ 2000 | C[C@H](c1cc(F)cnc1N)N1CCOc2c(C(F)(F)F)c(-c3ccc(F)c4sc(N)c(C#N)c34)c(F)c3nc(OC[C@@]45CCCN4C[C@H](F)C5)nc1c23 (single isomer, unassigned) [Compound 864]
13 | ≤ 2000 | ≤ 2000 | ≤ 2000 | ≤ 2000 | C[C@H](c1cccnc1N)N1CCOc2c(Cl)c(-c3ccc(F)c4sc(N)c(C#N)c34)c(F)c3nc(OC[C@@H]4CCCN4C)nc1c23 (single isomer, unassigned) [Compound 641]
14 | ≤ 2000 | ≤ 2000 | ≤ 2000 | ≤ 2000 | C[C@H](c1cccnc1N)N1CCOc2c(Cl)c(-c3ccc(F)c4sc(N)c(C#N)c34)c(F)c3nc(OC[C@@]45CCCN4C[C@]4(CC4(F)F)C5)nc1c23 [Compound 918, 2-amino-4-(4-((R)-1-(2-aminopyridin-3-yl)ethyl)-8-chloro-2-(((1R,7a′S)-2,2-difluorodihydro-1′H,3′H-spiro[cyclopropane-1,2′-pyrrolizin]-7a′(5′H)-yl)methoxy)-10-fluoro-5,6-dihydro-4H-[1,4]oxazepino[5,6,7-de]quinazolin-9-yl)-7-fluorobenzo[b]thiophene-3-carbonitrile]
15 | ≤ 2000 | ≤ 2000 | ≤ 2000 | ≤ 2000 | N#Cc1c(N)sc2c(F)ccc(-c3c(C(F)(F)F)c4c5c(nc(OCC6(CN7CCC8(CC7)CC8(F)F)CC6)nc5c3F)N([C@H](CCC(F)(F)F)c3cccnc3N)CCO4)c12 [Compound 637, 2-amino-4-(4-((R)-1-(2-aminopyridin-3-yl)-4,4,4-trifluorobutyl)-2-((1-((1,1-difluoro-6-azaspiro[2.5]octan-6-yl)methyl)cyclopropyl)methoxy)-10-fluoro-8-(trifluoromethyl)-5,6-dihydro-4H-[1,4]oxazepino[5,6,7-de]quinazolin-9-yl)-7-fluorobenzo[b]thiophene-3-carbonitrile]
16 | ≤ 2000 | ≤ 2000 | ≤ 2000 | ≤ 2000 | CO[C@H]1CCN(C)[C@@H]1COc1nc2c3c(c(C(F)(F)F)c(-c4ccc(F)c5sc(N)c(C#N)c45)c(F)c3n1)OCCN2[C@H](C)c1cc(F)cnc1N (single isomer, unassigned) [Compound 774]
17 | ≤ 2000 | ≤ 2000 | ≤ 2000 | ≤ 2000 | C[C@H](Oc1nc2c3c(c(C(F)(F)F)c(-c4ccc(F)c5sc(N)c(C#N)c45)c(F)c3n1)OCCN2[C@H](C)c1cccnc1N)[C@@H]1C[C@@H](F)CN1C [Compound 890, 2-amino-4-(4-((R)-1-(2-aminopyridin-3-yl)ethyl)-10-fluoro-2-((S)-1-((2S,4R)-4-fluoro-1-methylpyrrolidin-2-yl)ethoxy)-8-(trifluoromethyl)-5,6-dihydro-4H-[1,4]oxazepino[5,6,7-de]quinazolin-9-yl)-7-fluorobenzo[b]thiophene-3-carbonitrile]
18 | > 2000 | > 2000 | > 2000 | > 2000 | C[C@@H]1COCCN1CC1(COc2nc3c4c(c(C(F)(F)F)c(-c5ccc(F)c6sc(N)c(C#N)c56)c(F)c4n2)OCCN3[C@H](C)c2cccnc2N)CC1 (single isomer, unassigned) [Compound 807]
